Data as given in patent US11040026B2, “Muscarinic M1 receptor positive allosteric modulators” (SUVEN LIFE SCIENCES LIMITED, priority 2016, dated 2021).

Experiments:
muscarinic M1 receptor [1] = molecular target: T1, muscarinic M1 receptor (Homo sapiens, UniProt P11229); test: Allosteric potency EC50 for muscarinic M1 receptor (CHO pCRE-Luc reporter assay); format: cell-based; conditions: in presence of EC20 of acetylcholine; CHO cells, luciferase reporter, 4 hours
T1 sequence (P11229 1-460): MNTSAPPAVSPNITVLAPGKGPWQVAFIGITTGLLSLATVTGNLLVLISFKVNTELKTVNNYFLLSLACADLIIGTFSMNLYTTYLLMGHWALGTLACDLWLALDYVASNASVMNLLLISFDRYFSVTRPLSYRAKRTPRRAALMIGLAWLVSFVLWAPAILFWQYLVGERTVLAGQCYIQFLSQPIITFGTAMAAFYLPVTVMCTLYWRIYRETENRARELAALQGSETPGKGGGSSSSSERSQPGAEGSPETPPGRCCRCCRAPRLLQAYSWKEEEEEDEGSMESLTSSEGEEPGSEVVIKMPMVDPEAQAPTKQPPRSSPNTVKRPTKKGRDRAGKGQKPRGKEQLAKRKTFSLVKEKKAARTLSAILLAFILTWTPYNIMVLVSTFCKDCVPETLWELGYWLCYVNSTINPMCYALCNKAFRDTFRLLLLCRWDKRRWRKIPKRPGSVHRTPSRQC
Outline: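 Stable CHO line with recombinant human M1 and cAMP-response-element luciferase reporter, serum-starved overnight. Test compounds at increasing concentrations added with an EC20 of acetylcholine, 4 h at 37 °C; luminescence read after lysis. EC50 = concentration giving 50% stimulation of luciferase activity in the presence of EC20 acetylcholine.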

Male Wistar rats [2] = test: Object recognition task model; format: in vivo; conditions: rat, p.o.; for Exploration time mean ± S.E.M, Familiar object / Exploration time mean ± S.E.M, Novel object: choice trial 24 hours after T1
Method: Object Recognition Task Model
(§1) Male Wistar rats (8-10 weeks old) were used as experimental animals. Four animals were housed in each cage. Animals were kept on 20% food deprivation from a day prior to experimentation. Water was provided ad libitum throughout the experiment. Animals were maintained on a 12 hours light/dark cycle in temperature and humidity controlled room. The experiment was carried out in an circular or square arena made up of acrylic. Rats were habituated to individual arenas for up to 1 hour in the absence of any objects on day 1.
One group of 12 rats received vehicle and another set of animals received test compounds, before familiar (T1) and choice (T2) trials. During the familiarization phase, (T1), the rats were placed individually in the arena for 3 minutes, in which two identical objects (a1 and a2) were positioned 10 cm from the wall. 24 hours after T1, trial for long-term memory test was performed. The same rats were placed in the same arena as they were placed in T1 trial. During the choice phase (T2) rats were allowed to explore the arena for 3 minutes in presence of a copy of familiar object (a3) and one novel object (b). During the T1 and T2 trial, explorations of each object (defined as sniffing, licking, chewing or having moving vibrissae whilst directing the nose towards the object at a distance of less than 1 cm) were recorded using stopwatch.
T1 is the total time spent exploring the familiar objects (a1+a2).
T2 is the total time spent exploring the familiar object and novel object (a3+b).
The object recognition test was performed as described in Behav. Brain Res., 1988, 31, 47-59.

[3] = Rodent brain penetration study; format: in vivo, Male Wistar rats; conditions: male, Wistar, brain and plasma, po; rat, 3 mg/kg, p.o., brain-plasma ratio; read-out: Single dose Rat Brain Penetration (Cb/Cp) at 3 mg/kg, p.o.
Method: Rodent Brain Penetration Study
Male Wistar rats (260±40 grams) were used as experimental animals. Three animals were housed in each cage. Animals were given water and food ad libitum throughout the experiment and maintained on a 12 hours light/dark cycle.
Brain penetration was determined in discrete manner in rats. One day prior to dosing day, male Wistar rats were acclimatized and randomly grouped according to their weight. At each time point (0.50, 1 and 2 hours) n=3 animals were used.
The test compounds were suitably preformulated and administered orally at (free base equivalent) 3 mg/kg. Blood samples were removed via cardiac puncture by using isoflurane anesthesia. The animals were sacrificed to collect brain tissue. Plasma was separated and brain samples were homogenized and stored frozen at −20° C. until analysis. The concentrations of the test compounds in plasma and brain were determined using LC-MS/MS method.
The test compounds were quantified in plasma and brain homogenate by qualified LC-MS/MS method using suitable extraction technique. The test compounds were quantified in the calibration range of 1-500 ng/mL in plasma and brain homogenate. Study samples were analyzed using calibration samples in the batch and quality control samples spread across the batch. Extent of brain-plasma ratio (Cb/Cp) was calculated

Male Wistar rats [4] = test: Object recognition task model (combination study); format: in vivo; conditions: rat, combination (co-treatment) with donepezil; FIG. 1
Method: Object Recognition Task Model (Combination Study)
The cognition enhancing properties of compounds of this invention were estimated by using this model.
as §1, with “open field” for “circular or square arena”, “arenas (open field)” for “arenas”, “20 minutes” for “up to 1 hour”
One group of 12 rats received vehicle and another set of animals received compound of the formula (I) or Donepezil or compound of formula (I) and Donepezil, before the familiar (T1) and choice (T2) trials. During the familiarization phase, (T1), the rats were placed individually in the arena for 3 minutes, in which two identical objects (a1 and a2) were positioned 10 cm from the wall. 24 hours after T1, trial for long-term memory test was performed. […] During the T1 and T2 trial, explorations of each object (defined as sniffing, licking, chewing or having moving vibrissae whilst directing the nose towards the object at a distance of less than 1 cm) were recorded using stopwatch. […]

[5] = Rodent pharmacokinetic study; format: in vivo, Male Wistar rats; conditions: rat; for AUC(0-t) / clearance / half-life / Cmax: male, Wistar, plasma; for F: oral (gavage) 3 mg/kg vs intravenous 1 mg/kg
Method: Rodent Pharmacokinetic Study
Male Wistar rats (260±50 grams) were used as experimental animals. Animals were housed individually in polypropylene cage. Two days prior to study, male Wistar rats were anesthetized with isoflurane for surgical placement of jugular vein catheter. Rats were randomly divided for oral (3 mg/kg) and intravenous (1 mg/kg) dosing (n=3/group) and fasted overnight before oral dosing (p.o.). However, rats allocated to intravenous dosing food and water was provided ad libitum.
At pre-determined point, blood was collected through jugular vein and replenished with an equivalent volume of normal saline. Collected blood was transferred into a labeled eppendorf tube containing 10 μL of heparin as an anticoagulant. Typically blood samples were collected at following time points: 0.08, 0.25, 0.5, 1, 2, 4, 6, 8, and 24 hours post dose. Blood was centrifuged at 4000 rpm for 10 minutes. Plasma was separated and stored frozen at −80° C. until analysis. The concentrations of the test compounds were quantified in plasma by qualified LC-MS/MS method using suitable extraction technique. The test compounds were quantified in the calibration range around 1-1000 ng/mL in plasma. Study samples were analyzed using calibration samples in the batch and quality control samples spread across the batch.
Pharmacokinetic parameters Cmax, AUCt, T1/2, Clearance and Bioavailability (F) were calculated by non-compartmental model using standard non-compartmental model by using Phoenix WinNonlin 6.0.4 version Software package.

[6] = cited from earlier work
muscarinic M1 receptor [7] = molecular target: T1, muscarinic M1 receptor; conditions: literature report; cited from earlier work

| EC50 (muscarinic M1 receptor [1]) [nM] | Kp [3] | AUC(0-t) ([5]; intravenous (bolus), 1 mg/kg) [ng·h/mL] | clearance ([5]; intravenous (bolus), 1 mg/kg) [mL/min/kg] | half-life ([5]; intravenous (bolus), 1 mg/kg) [h] | AUC(0-t) ([5]; oral (gavage), 3 mg/kg) [ng·h/mL] | Cmax ([5]; oral (gavage), 3 mg/kg) [ng/mL] | half-life ([5]; oral (gavage), 3 mg/kg) [h] | F [5] [%] | SMILES | Inference (Male Wistar rats [2]; 3 mg/kg) | Exploration time mean ± S.E.M, Familiar object (Male Wistar rats [2]; 3 mg/kg) [s] | Exploration time mean ± S.E.M, Novel object (Male Wistar rats [2]; 3 mg/kg) [s] | Procognitive effect in object recognition task (Male Wistar rats [4]) | Inference (Male Wistar rats [2]; 10 mg/kg) | Exploration time mean ± S.E.M, Familiar object (Male Wistar rats [2]; 10 mg/kg) [s] | Exploration time mean ± S.E.M, Novel object (Male Wistar rats [2]; 10 mg/kg) [s] | Efficacy in preclinical models of cognition ([6]; Psychopharmacology, 2013, 225(1), 21-30) | Gastrointestinal side effects ([6]; at doses equal to or less than a fivefold margin from the minimum effective dose required to improve cognition) | Selectivity for muscarinic M1 receptor over the other muscarinic receptor subtypes (muscarinic M1 receptor [7]) |
| --- | --- | --- | --- | --- | --- | --- | --- | --- | --- | --- | --- | --- | --- | --- | --- | --- | --- | --- | --- |
| 1480 | 0.33 ± 0.02 | 796 ± 41 | 34 ± 3 | 1.3 ± 0.3 | 875 ± 215 | 373 ± 53 | 1.3 ± 0.2 | 59 ± 14 | Cn1ccc2c(Cc3ccnc(F)c3)cc(C(=O)N[C@H]3CCCC[C@@H]3O)nc21 [Example 1, N-[(1S,2S)-2-Hydroxycyclohexyl]-4-(2-fluoropyridin-4-ylmethyl)-1-methyl-1H-pyrrolo[2,3-b]pyridine-6-carboxamide] | Active | 12.67 ± 0.95 | 17.98 ± 1.77 | Procognitive effects were observed |  |  |  |  |  |  |
| 38 | 0.27 ± 0.06 | 853 ± 109 | 20 ± 3 | 1.3 ± 0.2 | 2710 ± 769 | 887 ± 74 | 3.6 ± 0.1 | 106 ± 30 | Cn1ccc2c(Cc3ccc(Cl)nc3)cc(C(=O)N[C@H]3CCCC[C@@H]3O)nc21 [Example 18, N-[(1S,2S)-2-Hydroxycyclohexyl]-4-(2-chloropyridin-5-ylmethyl)-1-methyl-1H-pyrrolo[2,3-b]pyridine-6-carboxamide] |  |  |  |  | Active | 8.00 ± 2.88 | 14.38 ± 1.62 |  |  |  |
| 131 | 0.63 ± 0.05 | 791 ± 11 | 21 | 0.7 ± 0.1 | 1090 ± 102 | 825 ± 41 | 0.5 ± 0.2 | 46 ± 4 | O=C(N[C@H]1CCCC[C@@H]1O)c1cc(Cc2ccc(F)cc2)c2c(n1)OCCO2 [Example 103, N-[(1S,2S)-2-Hydroxycyclohexyl]-8-(4-fluorobenzyl)-2,3-dihydro-[1,4]dioxino[2,3-b]pyridine-6-carboxamide] | Active | 12.20 ± 1.59 | 19.17 ± 3.01 |  |  |  |  |  |  |  |
| 407 | 1.37 ± 0.1 | 593 ± 79 | 28 ± 4 | 1.2 ± 0.3 | 234 ± 76 | 69 ± 12 | 3.5 ± 3.3 | 13 ± 4 | CN1CCOc2c(Cc3ccc(F)cc3)cc(C(=O)N[C@H]3CCCC[C@@H]3O)nc21 [Example 120, N-[(1S,2S)-2-Hydroxycyclohexyl]-8-(4-fluorobenzyl)-4-methyl-2H-pyrido[3,2-b][1,4]oxazine-6-carboxamide] |  |  |  |  | Active | 10.48 ± 1.02 | 15.43 ± 1.23 |  |  |  |
|  |  |  |  |  |  |  |  |  | N#CC1(c2ccccn2)CCN(Cc2cc(C(=O)O)c(=O)n3ccccc23)CC1 [PQCA, 1-{[4-cyano-4-(pyridine-2-yl)piperidin-1-yl]methyl}-4-oxo-4H-quinolizine-3-carboxylic acid] |  |  |  |  |  |  |  | efficacious | no gastrointestinal side effects | highly selective |
